Test results as given in paper PMC11062899, “De novo development of small cyclic peptides that are orally bioavailable” (Nature Chemical Biology, 2023).
Where “and” joins values, the source holds several entries; their conditions need not be identical. Identical values can stand only once.

What was measured:
human α-thrombin = human α-thrombin (Homo sapiens, UniProt P00734); assay: Sub-library screen for active and permeable cyclic peptides (PAMPA plus thrombin inhibition); type: biochemical; conditions: crude, slopes normalized to DMSO; for Residual thrombin activity: Top sample: PAMPA acceptor well after 14 h, 5 μM donor; for Residual thrombin activity: Equilibrated sample: donor sample diluted to theoretical equilibrium (1 μM in assay)
Procedure: Linear dithiol peptides were synthesized in fritted 5-ml polypropylene syringes on a MultiPep RSi parallel peptide synthesizer (Intavis) by standard Fmoc-based solid-phase peptide synthesis on cysteamine 2-chlorotrityl resin (Sigma-Aldrich, 8.56000, 1.63 mmol g^−1 loading, 25 μmol scale) as described above with small changes. Amino acids (65 μmol, 2.6 eq.) were activated with HATU (63 μmol, 2.5 eq.) and NMM (145 μmol, 5.8 eq.) in 280 μl of DMF and 5 μl of NMP and let to react with the resin (25 μmol, 1 eq.) for 45 min. Couplings were performed twice for each amino acid. Resin was washed once with 800 μl of DMF, and unreacted amines were capped with 5% acetic anhydride and 6% 2,6-lutidine in 400 μl of DMF for 5 min. The resin was washed six times with 600 μl of DMF, and Fmoc protecting groups were removed by incubating the resin twice with 450 μl of a 20% piperidine solution in DMF for 5 min. The resin was washed six times with 600 μl of DMF before proceeding to the next coupling cycle. After completing the last coupling cycle, the resin was washed six times with […] of DCM. Peptide cleavage and ether precipitation were carried out as described above. After quantification with Ellman’s reagent, 1 μmol of each peptide was transferred in seven replicates to new Nunc 96-well DeepWell polypropylene plates and lyophilized. Peptides were cyclized as described above to afford 20 mM cyclic peptide stock solutions in DMSO containing 160 mM HEPES sodium salt. The amine on cyclic peptides was acylated with 5-chlorothiophene-2-carboxylic acid as follows. A 160 mM solution in 5-chlorothiophene-2-carboxylic acid was prepared in DMSO containing 160 mM HEPES sodium salt, and the acid was activated by mixing in equal volumes with a 160 mM HSTU solution in DMSO. Then, 10 μl of the activated carboxylic acid solutions and the cyclic peptide stocks were placed in Echo Qualified 384-well Low Dead Volume microplates (Labcyte), and 400 nl of cyclic peptide and 400 nl of HSTU-activated 5-chlorothiophene-2-carboxylic acid were transferred combinatorially to 384-well microplates (Greiner, 781076) using the Echo 650 acoustic liquid handler (Labcyte). Plates were centrifuged at 2,000 g for 2 min, and the reaction was allowed to proceed at room temperature for 8 h before addition of 39.2 μl of DMSO with a CERTUS FLEX liquid dispenser (Gyger). A volume of 25 μl of the resulting DMSO solutions was diluted with PBS buffer at pH 7.4 containing 5% DMSO in Nunc 96-well DeepWell polypropylene plates to afford 5 μM solutions of the acylated peptides.
The PAMPA plates were covered with a lid to avoid evaporation and incubated for 14 h at room temperature. Additionally, a diluted donor sample was prepared at the concentration representing theoretical maximum permeability (3 μM). Thereby, 30 μl of the donor sample before incubation was diluted with 20 μl of PBS buffer at pH 7.4 containing 5% DMSO. Volumes of 16 μl of each acceptor well and the diluted donor samples were transferred to a 384-well microplate (Greiner, 781076), and thrombin activity was measured as follows. Human α-thrombin (16 μl, 6 nM, Molecular Innovations) in assay buffer was dispensed into each well using a CERTUS FLEX liquid dispenser (Gyger), and plates were incubated at room temperature for 10 min. Then, 16 μl of a 150 μM fluorogenic thrombin substrate solution (Z-Gly-Gly-Arg-AMC, Bachem) in assay buffer containing 1% DMSO was added to each well, and thrombin inhibition was determined by measuring the fluorescent gain over time. Fluorescence intensity was measured on a Tecan Infinite M200 Pro microplate reader for 30 min at 25 °C with a fluorescent readout every 3 min (excitation: 360 nm, emission: 465 nm). Protease inhibition was calculated by comparing the enzymatic activity to a control without cyclic peptide.

[1] = Metabolic stability in rat liver microsomes (RLMs); conditions: for TIC value at 0 min: 0 min incubation, Ox (+16)/(+32), deMe (-14)/(-28) = mass adducts (metabolites); for TIC value at 0 min / TIC value at 5 min / TIC value at 15 min / TIC value at 30 min / TIC value at 60 min: LCMS TIC, individual replicates R1-R3, protein 0.5 mg/ml; for TIC value at 5 min: 5 min incubation; for TIC value at 15 min: 15 min incubation; for TIC value at 30 min: 30 min incubation; for TIC value at 60 min: 60 min incubation; for half-life / microsomal CLint: rat, microsomes
[2] = Half Life Mean, rat liver microsomes, mean of R1-R3
[3] = Half Life, rat liver microsomes, individual replicates R1-R3
[4] = RLM CL Mean, rat liver microsomes, mean of R1-R3
[5] = RLM CL, rat liver microsomes, individual replicates R1-R3, incubation volume 400 ul, protein 0.5 mg/ml
[6] = Metabolic stability: RLM CL (ul/min/mg), RLMs, mean and SD, three measurements
[7] = Half-life (T1/2) in RLMs, 10 μM peptide, 37 °C, mean and s.d. of three measurements
[8] = Metabolic stability: Half life T1/2 (min), RLMs, mean and SD, three measurements

Row | Residual thrombin activity: Top sample (human α-thrombin) | Residual thrombin activity: Equilibrated sample (human α-thrombin) | TIC value at 0 min ([1]; rat liver microsomes) | TIC value at 5 min ([1]; rat liver microsomes) | TIC value at 15 min ([1]; rat liver microsomes) | TIC value at 30 min ([1]; rat liver microsomes) | TIC value at 60 min ([1]; rat liver microsomes) | half-life [1, 2] [min] | half-life [1, 3] [min] | microsomal CLint [1, 4] [µL/min/mg] | microsomal CLint [1, 5] [µL/min/mg] | microsomal CLint [1, 6] [µL/min/mg] | half-life [1, 7] [min] | half-life [1, 8] [min] | SMILES
1 | 77.6 | 68.5 |  |  |  |  |  |  |  |  |  |  |  |  | O=C1C[C@H]2CCCN2C(=O)[C@H](Cc2ccccc2)NC(=O)[C@@H](NC(=O)c2ccc(Cl)s2)CSCc2cccc(n2)CSCCN1 [C1-X5-L1]
2 | 88.1 | 37.4 |  |  |  |  |  |  |  |  |  |  |  |  | O=C1C[C@H]2CCCN2C(=O)[C@H](Cc2ccccc2)NC(=O)[C@@H](NC(=O)c2ccc(Cl)s2)CSCCS(=O)(=O)CCSCCN1 [C1-X5-L2]
3 | 88.7 | 68.9 |  |  |  |  |  |  |  |  |  |  |  |  | O=C1C[C@H]2CCCN2C(=O)[C@H](Cc2ccccc2)NC(=O)[C@@H](NC(=O)c2ccc(Cl)s2)CSCc2ccc(cc2)CSCCN1 [C1-X5-L3]
4 |  |  | 4100940 (2×) and 3001933 | 3877569 and 3883518 and 2646636 | 3731666 and 3678603 and 2895431 | 3163475 and 3179511 and 2181012 | 2955229 and 3322280 and 1801495 | > 60 | > 60 | 14.1 | 12.6 |  |  |  | O=C(Cc1c[nH]c2ccccc12)N[C@H]1CSCCS(=O)(=O)CCSCCNC(=O)C2(CCCC2)NC(=O)[C@@H]2CCCN2C1=O [compound 5]
5 |  |  | 880057 (2×) and 553202 | 821271 and 965964 and 386285 | 765281 and 1161804 and 367708 | 697748 and 898601 and 342582 | 664165 and 808479 and 323125 |  | 50.6 | 16.6 |  | 16.6 ± 7.6 |  |  | O=C1CSCCNC(=O)c2ccc(cc2)CNC(=O)[C@@H](NC(=O)C2CCS(=O)(=O)CC2)CCNC(=O)CCSC1 [compound 6]
6 |  |  | 6751463 (2×) and 7547988 | 6145465 and 6292775 and 6289651 | 3895721 and 6301539 and 5568669 | 3369766 and 4709220 and 3894141 | 1916782 and 2986882 and 2251799 | 37.4 | 28.1 | 39.6 | 49.2 | 40 ± 9 | 37 ± 10 | 37 ± 10 | CN1CCC(=O)NCCSCC(=O)CSC[C@H](NC(=O)c2cccc(C(F)(F)F)c2)C(=O)N2CCC[C@@H](C2)C1=O [compound 8]
7 |  |  | 15547492 (2×) and 14631455 | 12759369 and 8856874 and 13246148 | 8028101 and 6898172 and 9892349 | 4900968 and 4228902 and 5914854 | 1719220 and 1798352 and 2620253 | 22.3 | 17.3 | 64.1 | 80.2 | 64 ± 11 | 22 ± 4 | 22 ± 4 | Cn1nccc1C(=O)N1CCC2(CC1)NC(=O)[C@H](CC1CCCCC1)NC(=O)CCSCc1cccc(n1)CSCCNC2=O [compound 9]
8 |  |  | 5136707 (2×) and 3317301 | 5335426 and 4509848 and 3329443 | 4513948 and 3668718 and 2626547 | 4035558 and 3666920 and 2228136 | 3223521 and 2515297 and 2382324 | > 60 | > 60 | 17.6 | 15.4 | 17.6 ± 2.6 |  |  | CC(C)[C@@H]1NC(=O)CCSCCS(=O)(=O)CCSCCNC(=O)[C@H](CNC(=O)c2ccco2)NC1=O [compound 10]
9 |  |  | 4586491 (2×) and 3645847 | 3654952 and 3734486 and 3061802 | 1752251 and 2543021 and 981764 | 740144 and 790714 and 195334 | 105910 and 231909 and 39522 | 11.5 | 11.6 | 123 | 119 | 123 ± 18 | 11 | 11.5 ± 1.7 | O=C1CC2CCN(CC2)C(=O)[C@@H](NC(=O)c2cc(F)cc(F)c2)CSCc2ccc(cc2)CSCCNC(=O)[C@H](Cc2ccccc2)N1 [peptide 1]
10 |  |  | 4300369 (2×) and 5050392 | 4094044 and 4040957 and 4614305 | 4065591 and 3605857 and 4671032 | 3778445 and 3534653 and 4132452 | 3236121 and 3689440 and 3984891 | > 60 | > 60 | 10.7 | 9.21 | 10.7 ± 1.9 |  |  | O=C(N[C@H]1CSC/C=C\CSCCNC(=O)C2(CC2)CNC(=O)[C@H](CO)NC1=O)c1cccnc1 [peptide 2]
11 |  |  | 1629049 (2×) and 1656894 | 1396633 and 1109599 and 1416564 | 688706 and 808072 and 696583 | 432016 and 448206 and 497739 | 192689 and 235300 and 132050 | 16.9 | 15 | 83.8 | 92.5 | 84 ± 11 | 16.9 ± 2.5 | 16.9 ± 2.5 | COc1ccc(CC(=O)N[C@H]2Cc3ccc(cc3)CNC(=O)c3cccc(c3)CNC(=O)CCSCc3ccc(cc3)CSCCNC2=O)cc1OC [peptide 3]
12 |  |  | 2209118 (2×) and 1061770 | 1524575 and 1610332 and 921634 | 1519207 and 1327718 and 738514 | 1146033 and 1076120 and 486997 | 743609 and 590507 and 376829 | 34.6 | 31.2 | 40.6 | 44.4 | 41 ± 5 | 34 ± 4 | 35 ± 4 | NC(=O)NCCC[C@@H]1NC(=O)C2CN(CCN2C(=O)C2CCCN2S(=O)(=O)c2ccc(F)cc2)C(=O)CCSC/C=C/CSCCNC1=O (stereo partly shown) [peptide 4]

Row | SMILES | Residual thrombin activity: Top sample (human α-thrombin) | Residual thrombin activity: Equilibrated sample (human α-thrombin) | TIC value at 0 min ([1]; rat liver microsomes) | TIC value at 5 min ([1]; rat liver microsomes) | TIC value at 15 min ([1]; rat liver microsomes) | TIC value at 30 min ([1]; rat liver microsomes) | TIC value at 60 min ([1]; rat liver microsomes) | half-life [1, 2] [min] | half-life [1, 3] [min] | microsomal CLint [1, 4] [µL/min/mg] | microsomal CLint [1, 5] [µL/min/mg] | microsomal CLint [1, 6] [µL/min/mg] | half-life [1, 7] [min] | half-life [1, 8] [min]
13 | O=C1C[C@@H]2CCCN2C(=O)[C@@H](NC(=O)c2cccc(Cl)c2)CSCc2cccc(n2)CSCCNC(=O)[C@H](Cc2c[nH]c3ccccc23)N1 [compound 7] |  |  | 3550654 (2×) and 4325681 | 3349041 and 3673040 and 3817703 | 2080247 and 3097312 and 2624551 | 1705819 and 1909847 and 1817380 | 1049135 and 1421730 and 1465716 | 31.3 | 28.4 | 45.2 | 48.8 | 45 ± 6 | 31 ± 5 | 31 ± 5
